Patent publication US5169860A, “Antitumor compositions and methods of treatment” (Eli Lilly and Company, priority 1992, dated 1992)
Read-outs that look alike come from different tables or passages of the source.

System: 6C3HED lymphosarcoma
Assay: animal or person
Format: in vivo, C3H mice
Conditions: for Toxic/Total (mice which died relative to total number of animals in the group): mouse, in vivo
Protocol: The compounds were tested in C3H mice bearing a 6C3HED lymphosarcoma, also known as the Gardner lymphosarcoma (GLS). The 6C3HED lymphosarcoma was obtained from the Division of Cancer Treatment, National Cancer Institute, Tumor Bank, maintained at E. G. and G. Mason Research (Worcester, Massachusetts).
First passage tumor was stored in liquid nitrogen using standard techniques. The transplanted tumor was reestablished from the Tumor Bank every six months or as needed. The tumor was maintained by serial passage twice weekly in C3H mice.
In the procedures utilized here, the tumor was removed from passage animals and minced into 1- to 3-mm cubic fragments using sterile techniques. Tumor pieces were checked for sterility using both Antibiotic Medium 1 and Brain Heart Infusion (Difco, Detroit, Michigan). The tumor pieces were implanted into the recipient C3H mice subcutaneously in an auxillary site by trochar.
Drug therapy on the appropriate schedule was initiated seven days after tumor implantation. The compound being tested was mixed with 2.5% Emulphor EL620 from GAF Corporation (1:40 dilution in 0.9% saline). The total dosage volume for each administration was 0.5 mL. All animals were weighed at the beginning and end of administration of the subject compounds. Food and water were provided ad libitum
Each control group and each dosage level of the treated groups generally consisted of 10 mice selected at random from the pool of implanted animals. The formulations were administered orally by gavage with the use of an 18-gauge needle. Compounds were dosed daily for 10 days.
The tumor was measured five days after treatment ended with two dimensional measurements (width and length) of the tumor taken using digital electronic calipers interfaced to a microcomputer. J. F. Worzalla, et al.. Investicational New Drugs. 8:241-251 (1990). Tumor weights were calculated from these measurements using the following formula:
Tumor weight (mg)=[tumor length (mm)×[tumor width (mm)]2].div.2
At least one control group of an equal number of mice was treated with the same volume of 2.5% Emulphor only. The percent inhibition was determined by subtracting the ratio of the mean tumor size of the test group relative to the control group from one and multiplying the result by 100.
The results of several experiments in mice bearing the 6C3HED lymphosarcoma when the instant compounds were administered orally are provided in the following table. In this table, column 1 gives the example number of the compound of Formula I administered; column 2 gives the dosage level of the compound in milligrams per kilogram of body weight; column 3 describes the percent inhibition of tumor growth; and column 4 tallies the number of mice which died during the course of the experiment relative to the total number of animals in the group.

[1] = Mus musculus, 6C3HED, 120 h, oral gavage, daily for 10 days, tumor measured five days after treatment ended, read-out: Percent Inhibition of tumor growth
[2] = Mus musculus, 6C3HED, 240 h, second listing (groups of 8), oral gavage, daily for 10 days, read-out: Percent Inhibition of tumor growth

SMILES	inhibition in vivo at 150 mg/kg [1]	Toxic/Total (mice which died relative to total number of animals in the group)	inhibition in vivo at 300 mg/kg [1]	also measured
O=C(Nc1ccc(Cl)cc1)NS(=O)(=O)c1cc2ccccc2o1 [Example 1, N-[[(4-chlorophenyl)amino]carbonyl]-2-benzofuransulfonamide]	84%	4/10	–	–
Cc1ccc(NC(=O)NS(=O)(=O)c2cc3ccccc3o2)cc1 [Example 2, N-[[(4-methylphenyl)amino]carbonyl]-2-benzofuransulfonamide]	11%	0/10	37%	–
O=C(Nc1ccc(Cl)c(Cl)c1)NS(=O)(=O)c1cc2ccccc2o1 [Example 3, N-[[(3,4 dichlorophenyl)amino]carbonyl]-2-benzofuransulfonamide]	28%	–	28%	–
O=C(Nc1ccc(Br)cc1)NS(=O)(=O)c1cc2ccccc2o1 [Example 4, N-[[(4-bromophenyl)amino]carbonyl]-2-benzofuransulfonamide]	48%	1/10	–	–
O=C(Nc1ccc(Cl)cc1)NS(=O)(=O)c1cccc2occc12 [Example 5, N-[[(4-chlorophenyl)amino]carbonyl]-4-benzofuransulfonamide]	84%	–	100%	–
O=C(Nc1ccc(Cl)cc1)NS(=O)(=O)c1ccc2occc2c1 [Example 6, N-[[(4-chlorophenyl)amino]carbonyl]-5-benzofuransulfonamide hemihydrate]	100%	–	–	inhibition in vivo at 10 mg/kg (Mus musculus, 6C3HED, 120 h, 10 mg/kg, oral gavage, daily for 10 days, tumor measured five days after treatment ended, read-out: Percent Inhibition of tumor growth): 0%; inhibition in vivo at 20 mg/kg [1]: 7%; inhibition in vivo at 40 mg/kg [1]: 53%; inhibition in vivo at 80 mg/kg [1]: 96%
Cc1ccc(NC(=O)NS(=O)(=O)c2ccc3occc3c2)cc1 [Example 7, N-[[(4-methylphenyl)amino]carbonyl]-5-benzofuransulfonamide]	84%	–	100%	–
O=C(Nc1ccc(Cl)cc1)NS(=O)(=O)c1ccc2ccoc2c1 [Example 8, N-[[(4-chlorophenyl)amino]carbonyl]-6-benzofuransulfonamide]	–	–	–	inhibition in vivo at 20 mg/kg [1]: 45%; inhibition in vivo at 40 mg/kg [1]: 45%; inhibition in vivo at 80 mg/kg [1]: 93%; inhibition in vivo at 160 mg/kg (Mus musculus, 6C3HED, 120 h, 160 mg/kg, oral gavage, daily for 10 days, tumor measured five days after treatment ended, read-out: Percent Inhibition of tumor growth): 100%; inhibition in vivo at 40 mg/kg [2]: 92%; inhibition in vivo at 80 mg/kg [2]: 98%
O=C(Nc1ccc(Cl)cc1)NS(=O)(=O)c1cc2ccccc2[nH]1 [Example 9, N-[[(4-chlorophenyl)amino]carbonyl]-lH-indole-2-sulfonamide]	26%	–	57%	–
O=C(Nc1ccc(Cl)cc1)NS(=O)(=O)c1ccc2cc[nH]c2c1 [Example 10, N-[[(4-chlorophenyl)amino]carbonyl]-lH-indole-6-sulfonamide]	37%	0/10	80%	–
O=C(Nc1ccc(Cl)cc1)NS(=O)(=O)c1cc2ccccc2s1 [Example 11, N-[[(4-chlorophenyl)amino]carbonyl]benzo[B]thiophene-2-sulfonamide]	47%	–	66%	–
O=C(Nc1ccc(Cl)cc1)NS(=O)(=O)c1csc2ccccc12 [Example 12, N-[[(4-chlorophenyl)amino]carbonyl]benzo[B]thiophene-3-sulfonamide]	43%	0/10	69%	–
O=C(Nc1ccc(Cl)cc1)NS(=O)(=O)c1ccc2sccc2c1 [Example 13, N-[[(4-chlorophenyl)amino]carbonyl]benzo[B]thiophene-5-sulfonamide]	–	0/8	–	inhibition in vivo at 40 mg/kg [1]: 8%; inhibition in vivo at 80 mg/kg [1]: 44%
